Experimental data taken from ChEMBL document CHEMBL5096215, “Design, synthesis and antitumor efficacy evaluation of a series of novel β-elemene-based macrocycles” (Bioorg Med Chem, 2022).

How the values were obtained:
PC-3 [1] = assay: Antiproliferative activity against human PC-3 cells assessed as inhibition of cell growth at 50 uM measured after 48 hrs by CCK8 assay relative to control; type: functional
HCT-116 [2] = assay: Antiproliferative activity against human HCT-116 cells assessed as inhibition of cell growth measured after 48 hrs by CCK8 assay relative to control; type: functional, cell-based; conditions: HCT-116, 48 h
HCT-116 [3] = assay: Antiproliferative activity against human HCT-116 cells assessed as inhibition of cell growth at 50 uM measured after 48 hrs by CCK8 assay relative to control; type: functional
A549 [4] = assay: Antiproliferative activity against human A549 cells assessed as inhibition of cell growth measured after 48 hrs by CCK8 assay relative to control; type: functional, cell-based; conditions: A549, 48 h
PC-3 [5] = assay: Antiproliferative activity against human PC-3 cells assessed as inhibition of cell growth measured after 48 hrs by CCK8 assay relative to control; type: functional, cell-based; conditions: PC-3, 48 h
A549 [6] = assay: Antiproliferative activity against human A549 cells assessed as inhibition of cell growth at 50 uM measured after 48 hrs by CCK8 assay relative to control; type: functional
[7] = Antiproliferative activity against human U-87 MG cells assessed as inhibition of cell growth at 50 uM measured after 48 hrs by CCK8 assay relative to control; type: functional, U-87MG ATCC
[8] = Antiproliferative activity against human U-87 MG cells assessed as inhibition of cell growth measured after 48 hrs by CCK8 assay relative to control; type: functional, cell-based, U-87MG ATCC
U-251 [9] = assay: Antiproliferative activity against human U-251 cells assessed as inhibition of cell growth measured after 48 hrs by CCK8 assay relative to control; type: functional, cell-based; conditions: U-251, 48 h
U-251 [10] = assay: Antiproliferative activity against human U-251 cells assessed as inhibition of cell growth at 50 uM measured after 48 hrs by CCK8 assay relative to control; type: functional
U-251 [11] = assay: Potency index, […] for antiproliferative activity against human U-251 cells assessed as inhibition of cell growth measured after 48 hrs by CCK8 assay; type: functional
[12] = Potency index, […] for antiproliferative activity against human U-87 MG cells assessed as inhibition of cell growth measured after 48 hrs by CCK8 assay; type: functional, U-87MG ATCC
A549 [13] = assay: Potency index, […] for antiproliferative activity against human A549 cells assessed as inhibition of cell growth measured after 48 hrs by CCK8 assay; type: functional
PC-3 [14] = assay: Potency index, […] for antiproliferative activity against human PC-3 cells assessed as inhibition of cell growth measured after 48 hrs by CCK8 assay; type: functional
HCT-116 [15] = assay: Potency index, […] for antiproliferative activity against human HCT-116 cells assessed as inhibition of cell growth measured after 48 hrs by CCK8 assay; type: functional

SMILES	inhibition at 50 µM (PC-3 [1])	IC50 (HCT-116 [2])	inhibition at 50 µM (HCT-116 [3])	IC50 (A549 [4])	IC50 (PC-3 [5])	inhibition at 50 µM (A549 [6])	inhibition at 50 µM [7]	IC50 [8]	IC50 (U-251 [9])	inhibition at 50 µM (U-251 [10])	Ratio IC50 (U-251 [11])	Ratio IC50 [12]	Ratio IC50 (A549 [13])	Ratio IC50 (PC-3 [14])	Ratio IC50 (HCT-116 [15])
C=C[C@]1(C)CC[C@@H](C(=C)C)C[C@H]1C(=C)C	< 20%	782 µM	< 20%	227 µM	276 µM	< 20%	< 20%	266 µM	181 µM	< 20%	–	–	–	–	–
C=C[C@]1(C)CC[C@@H]2C[C@H]1C(=C)CN(C)CCN(C)Cc1cccc(c1)CN(C)CCN(C)CC2=C	68.8%	17.6 µM	94.8%	44.8 µM	38.6 µM	60.7%	< 20%	–	23 µM	98.5%	5	5	5	5	20
